Experimental data: US11618746B2, “Inhibitors of APOL1 and methods of using same” (Vertex Pharmaceuticals Incorporated, priority 2018, dated 2023)

Biological target: T1, G1 APOL1 (Homo sapiens, UniProt O14791, I384M/S342G)
T1 construct: expressed in transfected cells
T1 sequence (O14791 28-398 S342G/I384M): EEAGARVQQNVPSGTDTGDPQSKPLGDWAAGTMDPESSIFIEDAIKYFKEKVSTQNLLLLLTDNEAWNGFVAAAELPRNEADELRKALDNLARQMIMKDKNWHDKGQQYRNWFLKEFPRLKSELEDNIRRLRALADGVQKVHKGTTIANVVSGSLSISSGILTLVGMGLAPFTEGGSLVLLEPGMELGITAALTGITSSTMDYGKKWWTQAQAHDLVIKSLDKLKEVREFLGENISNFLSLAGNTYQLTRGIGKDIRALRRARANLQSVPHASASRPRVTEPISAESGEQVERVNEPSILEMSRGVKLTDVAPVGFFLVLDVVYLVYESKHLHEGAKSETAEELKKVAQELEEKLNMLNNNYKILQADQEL
Assay: Acute APOL1 Thallium Assay with inducible stable clones of HEK 293 cells
Type: cell-based
Details: HEK T-Rex tetracycline-inducible cells expressing G1 APOL1 (clone G1 DC3.25); inhibition of thallium flux rate
From the text: Acute APOL1 Thallium Assay with Inducible Stable Clones of HEK 293 Cells
Apolipoprotein L1 (APOL1) proteins form potassium-permeable cation pores in the plasma membrane. APOL1 risk variants (G1 and G2) induce greater potassium flux than G0 in HEK293 cells. This assay exploits the permeability of thallium (T1+) through ligand-gated potassium channels. The dye produces a bright fluorescent signal upon binding to T1+ conducted through potassium channels. The intensity of the T1+ signal is proportional to the number of potassium channels in the open state. Therefore, it provides a functional indication of the potassium channel activities. During the initial dye-loading step, the T1+ indicator dye as an acetoxymethyl (AM) ester enters the cells through passive diffusion. Cytoplasm esterases cleave the AM ester and relieve its active thallium-sensitive form. The cells are then stimulated with T1+. The increase of fluorescence in the assay represents the influx of T1+ into the cell specifically through the potassium channel (i.e. through APOL1 pores), providing a functional measurement of potassium channel/pore activity. The Thallium assay is conducted with cells expressing G1 APOL1.
APOL1 Cell Line (HEK T-Rex Stable Inducible Cell Line) • HEK T-Rex System • Tetracycline (Tet) inducible mammalian expression system. • Stably express the Tet repressor to regulate transcription. • Expression under the full-length CMV promoter. • APOL1 stable inducible cell line Clone used: G1 DC3.25
Tissue Culture Media • Cell Culture Medium • DMEM +10% FBS +P/S +5 μg/mL blasticidin+1 μg/mL puromycin. • 500 mL DMEM +55 mL FBS +5 mL P/S +280 μL blasticidin S HCl (10 mg/mL)+56 μL puromycin (10 mg/mL). • Cell Assay Medium • DMEM with 2% FBS+pen strep.
Instruments and Equipment • Nuaire cell culture hood, Cat. No. 540-600 • 37° C./5% CO2 incubator link to robotic arm, Liconic: STX110 • Molecular Devices FLIPR^Tetra High throughput cellular screening system, Cat. No. FT0324, Molecular Devices • ThermoFisher MultiDrop 384, Cat. No. 5840300 • Biotek Microfill, Cat. No. ASF1000A-4145 • BioRad TC10 cell counter, Cat. No. 145-0010 Assay Procedures
Cells Scaled Up from Frozen Vials • APOL1 G1 3.25 (HEK293 T-Rex) frozen vials: 5 million cells per vial • Step 1, Day 1: Defrost frozen vial into T-225. • Step 2, Day 5: (when 85% confluent): Split one T-225 at 3×10^6 cells per flask. • Step 3, Day 8: Splits cells to set up for the assay plates as described below.
T-Rex APOL1 HEK cells are split twice per week to keep the confluence state below 85% of the culture flask surface area. Cells can be kept until passage 25. • Cell Culture Medium • DMEM high glucose +10% FBS, +P/S, +5 μg/mL blasticidin, +1 μg/mL puromycin. • 500 mL DMEM, +55 mL FBS, +5 mL P/S, +280 μL blasicidin 10 mg/mL, +56 μL Puromycin 10 mg/mL. • Assay Media • Opti-MEM reduced serum medium from Invitrogen.
Preparation of Cell Assay Plates • Culture medium is removed from the x cm^2 T-flask by aspiration. • The cell monolayer is rinsed with PBS 1× at room temperature. PBS is removed by aspiration. • Cells are trypsinized using Trypsin. • The flasks are incubated at room temperature for 2-3 minutes. • Complete DMEM medium is then added. Cell suspension is then transferred to a 50 mL Falcon polypropylene tube. • Cells are then counted using a Biorad TC10 cell counter and the required amount of cells are centrifuged at 1200 RPM for 5 minutes. Required amount is 1.3×10^6 cells/mL APOL1 T-Rex HEK cells. • The pellet is suspended in the assay medium. • Using the MultiDrop, add 20 μL to each well (corresponds to 26000 cells total per well) of a 384-well black, transparent, flat bottom Poly-D coated plate. • Tetracycline as prepared in the following section is added to the cells before plating to induce APOL1 expression. • Plates are left at room temperature for 20 to 30 minutes before incubation at 37° C. and 5% CO2. […]

IC50 [nM]	SMILES
> 1000	CC(CC(=O)N[C@H]1CCNC1=O)c1c(-c2ccc(F)cc2)[nH]c2c(F)cc(F)cc12 (mixture of isomers) [Compound 96, 3-[5,7-difluoro-2-(4-fluorophenyl)-1H-indol-3-yl]-N-[(3S)-2-oxopyrrolidin-3-yl]butanamide]
> 1000	CC(CC(=O)N[C@@H]1C(=O)NC[C@H]1O)c1c(-c2ccc(F)cc2)[nH]c2c(F)cc(F)cc12 (mixture of isomers) [Compound 97, 3-[5,7-difluoro-2-(4-fluorophenyl)-1H-indol-3-yl]-N-[(3S,4R)-4-hydroxy-2-oxo-pyrrolidin-3-yl]butanamide]
> 1000	O=C(CCc1c(-c2ccc(F)cc2)[nH]c2cc(O)ccc12)N[C@@H]1C(=O)NC[C@H]1O (stereo in doubt) [Compound 110, 3-[2-(4-fluorophenyl)-6-hydroxy-1H-indol-3-yl]-N-[(3S,4R)-4-hydroxy-2-oxo-pyrrolidin-3-yl]propanamide]
> 1000	O=C(CCc1c(-c2ccc(F)cc2)[nH]c2c(F)cc(F)cc12)N[C@H]1C[C@@H](CF)NC1=O [Compound 9]
> 1000	O=C(CCc1c(-c2ccc(F)cc2)[nH]c2c(F)cc(F)cc12)N[C@H]1C[C@H](CF)NC1=O [Compound 10]
> 1000	C[C@H]1CNC(=O)[C@H]1NC(=O)CCc1c(-c2ccc(F)cc2)[nH]c2c(F)cc(F)cc12 [Compound 11]
> 1000	O=C(CCc1c(-c2ccc(F)cc2)[nH]c2c(F)cc(F)cc12)NC1CC2(CC2)NC1=O (centres unmarked) [Compound 17]
< 250	Cc1ccc(-c2[nH]c3c(F)cc(F)cc3c2CCC(=O)N[C@@H]2C(=O)NC[C@H]2O)cc1 [Compound 22]
< 250	Cc1ccc(-c2[nH]c3c(F)cc(F)cc3c2CCC(=O)N[C@H]2CCNC2=O)cc1 [Compound 23]
< 250	Cc1ccc(-c2[nH]c3c(F)cc(F)cc3c2CCC(=O)N[C@@H]2CCNC2=O)cc1 [Compound 24]
< 250	O=C(CCc1c(-c2ccccc2)[nH]c2c(F)cc(F)cc12)N[C@H]1CCNC1=O [Compound 25]
250 to 1000	Cc1cc(F)c2[nH]c(-c3ccc(F)cc3)c(CCC(=O)N[C@H]3CCNC3=O)c2c1 [Compound 31]
< 250	O=C(CCc1c(-c2ccc(F)cc2)[nH]c2c(F)cc(Cl)cc12)N[C@H]1CCNC1=O [Compound 32]
250 to 1000	O=C(CCc1c(-c2ccc(F)cc2)[nH]c2c(F)cc(Cl)cc12)N[C@@H]1CCNC1=O [Compound 33]
< 250	O=C(CCc1c(-c2ccc(F)cc2)[nH]c2c(Cl)cc(F)cc12)N[C@H]1CCNC1=O [Compound 34]
< 250	O=C(CCc1c(-c2ccccc2)[nH]c2c(Cl)cc(F)cc12)N[C@@H]1C(=O)NC[C@H]1O [Compound 35]
< 250	Cc1cc(F)cc2c(CCC(=O)N[C@H]3CCNC3=O)c(-c3ccc(F)cc3)[nH]c12 [Compound 38]
250 to 1000	Cc1cc(F)cc2c(CCC(=O)N[C@H]3CCNC3=O)c(-c3ccc(F)cc3)[nH]c12 [Compound 39]
250 to 1000	COc1cc(F)cc2c(CCC(=O)N[C@H]3CCNC3=O)c(-c3ccc(F)cc3)[nH]c12 [Compound 41]

IC50 [nM]	SMILES
< 250	O=C(CCc1c(-c2ccc(F)cc2)[nH]c2ccc(Cl)cc12)N[C@@H]1C(=O)NC[C@H]1O [Compound 45, 3-[5-chloro-2-(4-fluorophenyl)-1H-indol-3-yl]-N-[(3S,4R)-4-hydroxy-2-oxo-pyrrolidin-3-yl]propanamide]
> 1000	N#Cc1cccc(-c2[nH]c3ccc(F)cc3c2CCC(=O)N[C@H]2CCNC2=O)c1 [Compound 53]
> 1000	COc1ccc2[nH]c(-c3ccc(F)cc3)c(CCC(=O)N[C@H]3CCNC3=O)c2c1 [Compound 56, 3-[2-(4-fluorophenyl)-5-methoxy-1H-indol-3-yl]-N-[(3S)-2-oxopyrrolidin-3-yl]propanamide]
250 to 1000	O=C(CCc1c(-c2ccc(F)cc2)[nH]c2c(F)c(F)ccc12)N[C@H]1CCNC1=O [Compound 57]
250 to 1000	O=C(CCc1c(-c2ccccc2)[nH]c2c(F)cccc12)N[C@H]1CCNC1=O [Compound 60]
< 250	C=Cc1cccc2c(CCC(=O)N[C@@H]3C(=O)NC[C@H]3O)c(-c3ccccc3)[nH]c12 [Compound 62, N-[(3S,4R)-4-hydroxy-2-oxo-pyrrolidin-3-yl]-3-(2-phenyl-7-vinyl-1H-indol-3-yl)propanamide]
< 250	O=C(CCc1c(-c2ccccc2)[nH]c2c(C3CC3)cccc12)N[C@@H]1C(=O)NC[C@H]1O [Compound 63]
> 1000	O=C(CCc1c(-c2ccccc2)[nH]c2c(C3=CCOC3)cccc12)N[C@@H]1C(=O)NC[C@H]1O [Compound 64]
250 to 1000	O=C(CCc1c(-c2ccccc2)[nH]c2c(C3CCOC3)cccc12)N[C@@H]1C(=O)NC[C@H]1O (some centres unmarked) [Compound 65]
250 to 1000	CC(C)(O)c1cccc2c(CCC(=O)N[C@@H]3C(=O)NC[C@H]3O)c(-c3ccccc3)[nH]c12 [Compound 66]
250 to 1000	C=C(C)c1cccc2c(CCC(=O)N[C@@H]3C(=O)NC[C@H]3O)c(-c3ccccc3)[nH]c12 [Compound 67]
250 to 1000	CC(C)c1cccc2c(CCC(=O)N[C@@H]3C(=O)NC[C@H]3O)c(-c3ccccc3)[nH]c12 [Compound 68]
< 250	Cc1cccc2c(CCC(=O)N[C@@H]3C(=O)NC[C@H]3O)c(-c3ccccc3)[nH]c12 [Compound 69]
< 250	Cc1cccc2c(CCC(=O)N[C@@H]3C(=O)NC[C@H]3O)c(-c3ccc(F)cc3)[nH]c12 [Compound 71]
< 250	O=C(CCc1c(-c2ccccc2)[nH]c2c(Cl)cccc12)N[C@@H]1C(=O)NC[C@H]1O [Compound 74]
> 1000	COc1cccc2c(CCC(=O)N[C@H]3CCNC3=O)c(-c3ccc(F)cc3)[nH]c12 [Compound 77]
< 250	O=C(CCc1c(-c2ccc(F)cc2)[nH]c2c(F)c(F)c(F)cc12)N[C@@H]1C(=O)NC[C@H]1O [Compound 79]
< 250	O=C(CCc1c(-c2ccc(F)cc2)[nH]c2cc(F)c(F)cc12)N[C@@H]1C(=O)NC[C@H]1O [Compound 81]
< 250	Cc1c(F)ccc2c(CCC(=O)N[C@@H]3C(=O)NC[C@H]3O)c(-c3ccc(F)cc3)[nH]c12 [Compound 83]

SMILES	IC50 [nM]
CC(=O)O[C@@H]1CNC(=O)[C@H]1NC(=O)CCc1c(-c2ccc(F)cc2)[nH]c2c(F)cc(F)cc12 [Compound 4, [(3R,4S)-4-[3-[5,7-difluoro-2-(4-fluorophenyl)-1H-indol-3-yl]propanoylamino]-5-oxo-pyrrolidin-3-yl]acetate]	> 1000
O=C(CCc1c(-c2ccc(F)cc2)[nH]c2c(F)cc(F)cc12)N[C@H]1C(=O)NC[C@@H]1O [Compound 12]	250 to 1000
O=C(CCc1c(-c2ccc(F)cc2)[nH]c2c(F)cc(F)cc12)N[C@H]1C(=O)NC[C@H]1O [Compound 15]	250 to 1000
